Assay [1] deals with KRas WT (Homo sapiens, UniProt P01116). The assay can be described thus: KRas binding assay (TR-FRET displacement), KRas WT. The conditions noted are these: for inhibition at 0.01 µM: single point, 10 nM compound; for IC50: TR-FRET displacement. (In TR-FRET formats the signal depends on donor and acceptor labels being close together.)
Assay [2] has as its target KRas G12A (Homo sapiens, UniProt P01116, G12A). It is filed as binding. Particulars: for inhibition at 0.01 µM: single point, 10 nM compound, read-out: Binding to KRas (% inhibition at 10 nM) G12A; for IC50: TR-FRET displacement, read-out: Binding to KRas (IC50 nM) G12A.
The target in assay [3] is KRas G12C (Homo sapiens, UniProt P01116, G12C). In kind it is binding. The conditions noted are these: for inhibition at 0.01 µM: single point, 10 nM compound, read-out: Binding to KRas (% inhibition at 10 nM) G12C; for IC50: TR-FRET displacement, read-out: Binding to KRas (IC50 nM) G12C.
Chain of KRas G12C (P01116 1-169 isoform P01116-2 G12C): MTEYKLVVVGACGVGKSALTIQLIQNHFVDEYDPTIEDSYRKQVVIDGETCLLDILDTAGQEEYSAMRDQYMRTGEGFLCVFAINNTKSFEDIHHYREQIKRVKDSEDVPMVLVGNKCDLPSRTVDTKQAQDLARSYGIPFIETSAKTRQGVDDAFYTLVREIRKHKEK
The target in assay [4] is KRas G12S (Homo sapiens, UniProt P01116, G12S). It is filed as binding. The conditions noted are these: for inhibition at 0.01 µM: single point, 10 nM compound, read-out: Binding to KRas (% inhibition at 10 nM) G12S; for IC50: TR-FRET displacement, read-out: Binding to KRas (IC50 nM) G12S.
Chain of KRas G12S (P01116 1-169 isoform P01116-2 G12S): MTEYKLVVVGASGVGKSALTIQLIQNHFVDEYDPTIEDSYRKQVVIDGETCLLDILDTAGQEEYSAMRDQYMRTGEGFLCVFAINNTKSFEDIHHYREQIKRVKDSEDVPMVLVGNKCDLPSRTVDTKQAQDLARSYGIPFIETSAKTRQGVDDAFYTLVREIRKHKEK
In assay [5] the target is KRas G13D (Homo sapiens, UniProt P01116, G13D). It is filed as binding. Particulars: for inhibition at 0.01 µM: single point, 10 nM compound, read-out: Binding to KRas (% inhibition at 10 nM) G13D; for IC50: TR-FRET displacement, read-out: Binding to KRas (IC50 nM) G13D.
Chain of KRas G13D (P01116 1-169 isoform P01116-2 G13D): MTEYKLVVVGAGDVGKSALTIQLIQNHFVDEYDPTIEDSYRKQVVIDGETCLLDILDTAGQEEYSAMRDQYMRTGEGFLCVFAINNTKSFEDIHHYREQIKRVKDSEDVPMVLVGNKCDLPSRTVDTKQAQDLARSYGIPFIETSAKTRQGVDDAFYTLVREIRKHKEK
Assay [6] has as its target KRas Q61H (Homo sapiens, UniProt P01116, Q61H). The assay is described as follows: KRas binding assay (TR-FRET displacement), KRas Q61H. The conditions noted are these: for inhibition at 0.01 µM: single point, 10 nM compound; for IC50: TR-FRET displacement.
In assay [7] the test system is ASPC1 cells. The assay can be described thus: Inhibition of KRas-mediated phosphorylation of ERK (Cisbio HTRF pERK), ASPC1 cells. It is filed as cell-based. The conditions noted are these: Homo sapiens, AsPC-1 cells; for IC50: ASPC1, 3 h, 3 hr compound incubation, Cisbio pERK HTRF; for inhibition at 0.1 µM: ASPC1, single point at 100 nM, 3 hrs compound incubation.
The subject of assay [8] is H727 cells. The assay is described as follows: Inhibition of KRas-mediated phosphorylation of ERK (Cisbio HTRF pERK), H727 cells. It is filed as cell-based. Particulars: Homo sapiens; for IC50: NCI-H727, 3 h, 3 hr compound incubation, Cisbio pERK HTRF; for inhibition at 0.1 µM: NCI-H727, single point at 100 nM, 3 hrs compound incubation.
For assay [9], the system named is A549 cells. The assay can be described thus: Inhibition of KRas-mediated phosphorylation of ERK (Cisbio HTRF pERK), A549 cells. It is filed as cell-based. The conditions noted are these: Homo sapiens, single point at 100 nM, 3 hrs compound incubation.
Assay [10] deals with H460 cells. The assay is described as follows: Inhibition of KRas-mediated phosphorylation of ERK (Cisbio HTRF pERK), H460 cells. It is filed as cell-based. The conditions noted are these: Homo sapiens, NCI-H460, single point at 100 nM, 3 hrs compound incubation.
Assay [11] has as its system HCT116 cells. The assay is described as follows: Inhibition of KRas-mediated phosphorylation of ERK (Cisbio HTRF pERK), HCT116 cells. In kind it is cell-based. The conditions noted are these: Homo sapiens, HCT-116, single point at 100 nM, 3 hrs compound incubation.
In assay [12] the test system is H358 cells. The assay is described as follows: Inhibition of KRas-mediated phosphorylation of ERK (Cisbio HTRF pERK), H358 cells. It is filed as cell-based. The conditions noted are these: Homo sapiens, NCI-H358, single point at 100 nM, 3 hrs compound incubation.
The target of assay [13] is KRas G12D (Homo sapiens, UniProt P01116, G12D). The assay can be described thus: biochemical. The conditions noted are these: Binding to KRas (IC50 nM) G12D, TR-FRET displacement, KRas G12D.
Chain of KRas G12D (P01116 1-169 isoform P01116-2 G12D): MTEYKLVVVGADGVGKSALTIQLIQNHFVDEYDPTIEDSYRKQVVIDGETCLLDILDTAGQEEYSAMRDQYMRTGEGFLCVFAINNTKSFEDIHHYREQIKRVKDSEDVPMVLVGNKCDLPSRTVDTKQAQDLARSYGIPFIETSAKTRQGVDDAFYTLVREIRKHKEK
The target in assay [14] is KRas G12R (Homo sapiens, UniProt P01116, G12R). The assay is described as follows: biochemical. The conditions noted are these: Binding to KRas (IC50 nM) G12R, TR-FRET displacement, KRas G12R.
Chain of KRas G12R (P01116 1-169 isoform P01116-2 G12R): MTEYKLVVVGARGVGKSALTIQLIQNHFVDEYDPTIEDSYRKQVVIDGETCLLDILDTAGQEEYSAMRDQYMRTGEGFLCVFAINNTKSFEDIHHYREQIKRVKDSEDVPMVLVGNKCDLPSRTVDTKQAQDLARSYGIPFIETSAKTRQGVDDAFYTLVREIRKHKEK
In assay [15] the target is KRas G12V (Homo sapiens, UniProt P01116, G12V). The assay is described as follows: biochemical. Particulars: Binding to KRas (IC50 nM) G12V, TR-FRET displacement, KRas G12V.
Chain of KRas G12V (P01116 1-169 isoform P01116-2 G12V): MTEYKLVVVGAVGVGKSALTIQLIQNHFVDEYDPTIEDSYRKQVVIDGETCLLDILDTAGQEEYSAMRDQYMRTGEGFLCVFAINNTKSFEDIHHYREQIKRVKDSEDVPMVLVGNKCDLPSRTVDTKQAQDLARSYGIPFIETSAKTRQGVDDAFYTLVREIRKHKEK

Chain of KRas G12A (P01116 1-169 isoform P01116-2 G12A): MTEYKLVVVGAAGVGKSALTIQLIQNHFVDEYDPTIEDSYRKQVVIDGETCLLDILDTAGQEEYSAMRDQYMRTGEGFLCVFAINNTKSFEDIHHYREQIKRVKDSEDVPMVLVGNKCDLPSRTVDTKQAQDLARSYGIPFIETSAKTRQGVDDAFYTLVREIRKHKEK
Chain of KRas WT (P01116 1-169 isoform P01116-2): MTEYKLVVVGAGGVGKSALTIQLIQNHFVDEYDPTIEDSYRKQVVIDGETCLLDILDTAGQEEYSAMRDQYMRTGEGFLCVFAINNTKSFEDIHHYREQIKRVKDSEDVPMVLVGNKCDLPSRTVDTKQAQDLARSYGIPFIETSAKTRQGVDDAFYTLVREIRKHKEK
Chain of KRas Q61H (P01116 1-169 isoform P01116-2 Q61H): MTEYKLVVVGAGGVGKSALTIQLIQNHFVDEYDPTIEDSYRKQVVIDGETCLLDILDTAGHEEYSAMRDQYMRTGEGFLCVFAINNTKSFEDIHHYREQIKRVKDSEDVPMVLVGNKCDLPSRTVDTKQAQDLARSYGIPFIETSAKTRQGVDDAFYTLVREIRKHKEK

In general, inhibition refers to the relative decrease from the control value, in per cent. Broadly, the IC50 is the concentration that inhibits the measured activity by half. In the case of `CCc1c(F)ccc2cc(O)cc(N3CCc4c(nc(OC[C@@]56CCCN5C[C@H](F)C6)nc4N4CCCn5nc(C(=O)N6CC7CCC6CN7)cc5C4)C3)c12` (stereo partly drawn) [Example 264, 2,5-diazabicyclo[2.2.2]octan-2-yl(5-(7-(8-ethyl-7-fluoro-3-hydroxynaphthalen-1-yl)-2-(((2R,7aS)-2-fluorohexahydro-1H-pyrrolizin-7a-yl)methoxy)-5,6,7,8-tetrahydropyrido[3,4-d]pyrimidin-4-yl)-5,6,7,8-tetrahydro-4H-pyrazolo[1,5-a][1,4]diazepin-2-yl)methanone], the inhibition at 0.01 µM in assay [1] was determined as 96%; in [2], 95%; in [3], 100%; in [4], 99%; in [5], 97%; in assay [6] it was 98%. For the same compound, the IC50 in assay [7] was 51 nM; in [8] it was 259 nM; in assay [13], less than 2 nM; in assay [14], less than 2 nM; in assay [15], less than 2 nM. Also, the inhibition at 0.1 µM in [7] is 34%; in assay [8], 22%; in assay [9] it was 15%; in assay [10], 0%; in [11] it was -7%; in [12], 43%.

With `CCc1c(F)ccc2cc(O)cc(N3CCc4c(nc(OC[C@@]56CCCN5C[C@H](F)C6)nc4N4CCCn5nc(CN(C)C(=O)N(C)C)cc5C4)C3)c12` [Example 288, 1-((5-(7-(8-ethyl-7-fluoro-3-hydroxynaphthalen-1-yl)-2-(((2R,7aS)-2-fluorohexahydro-1H-pyrrolizin-7a-yl)methoxy)-5,6,7,8-tetrahydropyrido[3,4-d]pyrimidin-4-yl)-5,6,7,8-tetrahydro-4H-pyrazolo[1,5-a][1,4]diazepin-2-yl)methyl)-1,3,3-trimethylurea], the inhibition at 0.01 µM in [1] was 38%; in assay [2], 38%; in assay [3], 56%; in assay [4], 53%; in [5] it was 40%; in assay [6], 33%. Further, the IC50 was found to be 67 nM in [7]; 189 nM in assay [8]; 4 nM in assay [13]; 9 nM in [14]; 6 nM in assay [15]. Further, the inhibition at 0.1 µM in [9] came to 22%; in assay [10] it was 3%; in [11], 17%; in assay [12], 26%.

`CN(C)C(=O)c1cc2n(n1)CCCN(c1nc(OCC34CCCN3CCC4)nc3c1CCN(c1cc(O)cc(Cl)c1C1CC1)C3)C2` [Example 437, 5-(7-(3-chloro-2-cyclopropyl-5-hydroxyphenyl)-2-((tetrahydro-1H-pyrrolizin-7a(5H)-yl)methoxy)-5,6,7,8-tetrahydropyrido[3,4-d]pyrimidin-4-yl)-N,N-dimethyl-5,6,7,8-tetrahydro-4H-pyrazolo[1,5-a][1,4]diazepine-2-carboxamide]: the half-maximal inhibitory concentration (IC50) in assay [1] worked out at 8 nM; in [2], 7 nM; in assay [3], 4 nM; in assay [4] it was 4 nM; in assay [5], 14 nM; in [6], 12 nM. Moreover, the IC50 is 5200 nM in assay [7]; 4480 nM in [8]; less than 2 nM in assay [13]; 5 nM in assay [14]; less than 2 nM in assay [15]. Besides, the inhibition at 0.1 µM in [7] is 2%; in assay [8] it was -2%; in [9], -10%; in assay [12] it was -16%.

With `Oc1cc(Cl)c(C2CC2)c(N2CCc3c(nc(OCC45CCCN4CCC5)nc3N3CCC[C@]4(C3)C[C@H](O)C4)C2)c1` [Example 440, (2s,4r)-6-(7-(3-chloro-2-cyclopropyl-5-hydroxyphenyl)-2-((tetrahydro-1H-pyrrolizin-7a(5H)-yl)methoxy)-5,6,7,8-tetrahydropyrido[3,4-d]pyrimidin-4-yl)-6-azaspiro[3.5]nonan-2-ol], the IC50 in assay [1] came to 46 nM; in assay [2], 46 nM; in [3] it was 30 nM; in assay [4], 41 nM; in assay [5] it was 73 nM; in assay [6], 63 nM. The half-maximal inhibitory concentration (IC50) in assay [7] was more than 10000 nM; in assay [8], 6510 nM; in assay [13], 44 nM; in assay [14], 36 nM; in [15], 13 nM. Moreover, the inhibition at 0.1 µM in [7] was -10%; in assay [8] it was -10%; in assay [9], -6%; in [12], -1%.

`Oc1cc(Cl)c(C2CC2)c(N2CCc3c(nc(OCC45CCCN4CCC5)nc3N3CCC[C@]4(C3)C[C@@H](O)C4)C2)c1` [Example 441, (2r,4s)-6-(7-(3-chloro-2-cyclopropyl-5-hydroxyphenyl)-2-((tetrahydro-1H-pyrrolizin-7a(5H)-yl)methoxy)-5,6,7,8-tetrahydropyrido[3,4-d]pyrimidin-4-yl)-6-azaspiro[3.5]nonan-2-ol]: the IC50 in assay [1] came to 19 nM; in [2], 19 nM; in [3], 11 nM; in assay [4], 15 nM; in assay [5] it was 27 nM; in [6], 21 nM. Moreover, the IC50 was more than 10000 nM in assay [7]; 5710 nM in assay [8]; 24 nM in [13]; 14 nM in assay [14]; 8 nM in assay [15]. The inhibition at 0.1 µM in assay [7] is 9%; in assay [8], -17%; in assay [9], -33%; in [12] it was 11%.

For the compound `O=C1NC(=O)[C@]2(CCCN(c3nc(OCC45CCCN4CCC5)nc4c3CCN(c3c(C5CC5)c(Cl)cc5[nH]ncc35)C4)C2)N1` [Example 471, (R)-7-(7-(6-chloro-5-cyclopropyl-1H-indazol-4-yl)-2-((hexahydro-1H-pyrrolizin-7a-yl)methoxy)-5,6,7,8-tetrahydropyrido[3,4-d]pyrimidin-4-yl)-1,3,7-triazaspiro[4.5]decane-2,4-dione], the IC50 in assay [1], in [2], in assay [3], in [4], in assay [5] and in assay [6] was less than 2 nM throughout. For the same compound, the IC50 is 5320 nM in [7]; 2880 nM in assay [8]; less than 2 nM in assay [13]; less than 2 nM in assay [14]; less than 2 nM in assay [15]. Also, the inhibition at 0.1 µM in [10] and in assay [11] was -3% each time.

`CN1CCC[C@H]1COc1nc2c(c(N3CCCC4(CC(O)C4)C3)n1)CCN(c1cccc3cccc(Cl)c13)C2` (stereo partly drawn) [Example 484, (S)-6-(7-(8-chloronaphthalen-1-yl)-2-((1-methylpyrrolidin-2-yl)methoxy)-5,6,7,8-tetrahydropyrido[3,4-d]pyrimidin-4-yl)-6-azaspiro[3.5]nonan-2-ol]: the IC50 in assay [1] stood at 2960 nM; in [2] it was 2540 nM; in [3] it was 1540 nM; in assay [4], 2550 nM; in assay [5], 4430 nM; in [6], 3610 nM. Further, the IC50 in assay [7] was more than 10000 nM; in [8], more than 10000 nM; in [13], 3120 nM; in assay [14], 1810 nM; in [15] it was 1180 nM.

Values taken from patent US20250368649A1, “TETRAHYDROPYRIDOPYRIMIDINE PAN-KRAS INHIBITORS” (Mirati Therapeutics, Inc., priority 2022, published 2025).
